The test system of data set [1] is influenza A virus. As to the kind of experiment: microbe, parasite or virus in culture. Type of data set: cell-based. The settings on record: A549, 48 h.
Data set [2] deals with influenza A virus. As to the kind of experiment: microbe, parasite or virus in culture. It is filed as cell-based. Conditions: MDCK, 48 h.
Data set [3] has as its system influenza A virus. Briefly: microbe, parasite or virus in culture. Conditions: 48 h. Type of data set: cell-based.
In data set [4] the test system is influenza A virus. Briefly: microbe, parasite or virus in culture. Type of data set: cell-based. The settings on record: 72 h.
A further data set has as its system A549 cells. As to the kind of experiment: XTT cell viability assay, A549 cells. Type of data set: cell-based, human. Conditions: 48 h. Background: Tetrazolium dyes change colour on reduction, which living cells bring about.
The test system of the next data set is MDCK cells. As to the kind of experiment: XTT cell viability assay, MDCK cells. It is filed as cell-based, canine. The settings on record: 48 h.
The next data set has as its system LET1 cells. Briefly: XTT cell viability assay, LET1 cells. Type of data set: cell-based, mouse. Conditions: 48 h.
Another data set deals with HAE cultures. Briefly: Cytotoxicity in HAE cultures. The settings on record: up to 160 µM (0.054 µg/mL). Type of data set: cell-based, human.
The next data set deals with ERK1. Briefly: cells. Type of data set: cell-based, human.
The test system of another data set is influenza A virus NP. It is filed as cell-based, human.
Data set [5] concerns influenza virus. The settings on record: MDCK cells, ref Wu et al. [20], cited from earlier work.
Data set [6] relates to influenza virus. The settings on record: cited from earlier work.
The test system of the next data set is H1N1 virus. The settings on record: MDCK cells; ref Cecil et al. [19]; cited from earlier work.

Data on 2 molecules can be found in paper PMC7150991 (Viruses, 2020).

SMILES strings stand for the structures. Where “and” joins values, the source holds several entries; their conditions need not be identical. Identical values can stand only once. Like-named read-outs stand apart in the source and are kept apart here.

In general, IC50 refers to the midpoint of a concentration-inhibition curve. As a reminder, the inhibition is the percentage by which the read-out fell short of the control. Turning to `COc1ccc2cc3[n+](cc2c1OC)CCc1cc2c(cc1-3)OCO2` [BBR, Berberine chloride hydrate], the half-maximal inhibitory concentration (IC50) in the data set with influenza A virus [1] was 17 µM and 6 µg/mL; in the data set on influenza A virus [2], 52 µM and 17 µg/mL; with influenza A virus [3], 4 µM and 1 µg/mL; in the data set on influenza A virus [4], 16 µM and 5 µg/mL; in the data set on influenza virus [5] (conversion of 0.025 µg/mL, read-out: IC50), around 67 µM; in the data set on influenza virus [5], 0.025 µg/mL. Also, the TC50 in the data set on A549 cells came to 107 µM; with A549 cells (value in brackets), 0.036 µg/mL; in the data set with MDCK cells, 1035 µM; in the data set on MDCK cells (value in brackets), 0.350 µg/mL; with LET1 cells, 521 µM; in the data set on LET1 cells (value in brackets) it was 0.176 µg/mL. The “cytotoxicity at tested concentrations” value with HAE cultures was “did not observe cytotoxicity”. Moreover, in the data set on ERK1 (Homo sapiens, A549, 12 h, read-out: inhibition of ERK1 activation (phospho-ERK1, Western blot)), the inhibition at 20 µM was 45%. The “accumulation of influenza A virus NP in nuclear fractions” value in the data set on influenza A virus NP was “did not cause significant accumulation”. Moreover, the “decrease of NP signal in cytoplasmatic fraction” value in the data set with influenza A virus NP is reported as “about 40 % inhibition”. In addition, the “increase of viral NP in nuclear fractions compared to untreated infection” value in the data set on influenza A virus NP was ~ 3 fold. Further, the mice mortality in the data set on influenza virus [6] (mice models, reduced from 90%) is reported as 55%. In addition, in the data set with influenza virus [6] (mice, day 2 post-infection), the “virus titers in the lungs” value was “decreased”. In addition, the “inhibition of virus replication” value in the data set with H1N1 virus was “No inhibition”.

On to `N#CC(=C(/N)Sc1ccccc1N)/C(C#N)=C(/N)Sc1ccccc1N` [U0126, reference compound], for which the “inhibition of ERK1 activation (phospho-ERK1, Western blot)” value with ERK1 amounted to 76 % inhibition. In the data set on influenza A virus NP, the “decrease of NP signal in cytoplasmatic fraction” value was “about 40 % inhibition” and the “increase of viral NP in nuclear fractions compared to untreated infection” value is reported as ~ 3 fold.
